# Assay results reported in ChEMBL document CHEMBL6074670, “Discovery of NP3-253, a Potent Brain Penetrant Inhibitor of the NLRP3 Inflammasome” (J Med Chem, 2024).
# Activity calls are given as the source filed them. The calls are words filed in the database; no cut-off is given here.
# Experiments:
# [1] = molecular target: NACHT, LRR and PYD domains-containing protein 3 (Mus musculus) (UniProt Q8R4B8); experiment: In vivo inhibition of NLRP3 in LPS/ATP-induced C57BL/6JRi mouse peritonitis model assessed as reduction in IL-1beta level at 3 mg/kg, po preadministered with compound for 3 hrs followed by LPS stimulation for 2 hrs and measured 15 mins after ATP addition; type: functional, organism-based; conditions: time 315.0 min
# NACHT, LRR and PYD domains-containing protein 3 (Mus musculus), sequence (Q8R4B8 whole entry, the tested form may be a part): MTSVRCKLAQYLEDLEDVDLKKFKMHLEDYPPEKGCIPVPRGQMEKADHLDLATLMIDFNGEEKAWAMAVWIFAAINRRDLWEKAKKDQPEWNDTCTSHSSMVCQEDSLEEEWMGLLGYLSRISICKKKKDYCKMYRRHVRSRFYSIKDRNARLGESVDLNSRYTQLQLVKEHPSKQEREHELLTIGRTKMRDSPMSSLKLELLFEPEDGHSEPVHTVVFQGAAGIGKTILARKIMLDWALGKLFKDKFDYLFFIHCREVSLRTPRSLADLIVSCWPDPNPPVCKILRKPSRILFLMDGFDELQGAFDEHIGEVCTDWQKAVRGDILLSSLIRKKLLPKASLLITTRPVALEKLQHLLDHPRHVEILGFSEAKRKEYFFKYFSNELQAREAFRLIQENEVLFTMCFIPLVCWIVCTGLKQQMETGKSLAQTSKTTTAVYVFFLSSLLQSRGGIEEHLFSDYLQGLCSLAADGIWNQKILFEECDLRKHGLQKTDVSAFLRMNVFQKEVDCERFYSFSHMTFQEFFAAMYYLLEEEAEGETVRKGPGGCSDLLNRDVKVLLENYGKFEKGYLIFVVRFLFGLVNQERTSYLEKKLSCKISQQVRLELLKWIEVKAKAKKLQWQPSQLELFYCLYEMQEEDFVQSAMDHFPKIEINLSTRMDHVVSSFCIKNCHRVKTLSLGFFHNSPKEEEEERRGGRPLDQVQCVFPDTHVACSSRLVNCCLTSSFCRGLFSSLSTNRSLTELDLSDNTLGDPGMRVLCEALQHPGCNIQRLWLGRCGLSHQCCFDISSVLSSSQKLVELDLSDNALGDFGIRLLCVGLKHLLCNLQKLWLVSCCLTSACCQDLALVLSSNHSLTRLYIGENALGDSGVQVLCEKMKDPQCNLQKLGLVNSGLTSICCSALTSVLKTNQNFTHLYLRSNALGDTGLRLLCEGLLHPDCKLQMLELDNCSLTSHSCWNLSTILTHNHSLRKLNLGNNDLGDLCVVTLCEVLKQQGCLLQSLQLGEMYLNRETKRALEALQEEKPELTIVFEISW
# [2] = molecular target: NACHT, LRR and PYD domains-containing protein 3 (Mus musculus) (UniProt Q8R4B8); experiment: In vivo inhibition of NLRP3 in LPS/ATP-induced C57BL/6JRi mouse peritonitis model assessed as reduction in IL-1beta level at 0.05 mg/kg, po preadministered with compound for 3 hrs followed by LPS stimulation for 2 hrs and measured 15 mins after ATP addition; type: functional, organism-based; conditions: time 315.0 min
# Pyrin = molecular target: T1, Pyrin (Homo sapiens, UniProt O15553); experiment: Inhibition of pyrin inflammasome activation in human U-937 cells assessed as IL-1beta secretion preincubated for 1 hr followed by BAA473 addition and measured after 4 hrs; type: cell-based
# T1 sequence (O15553 whole entry): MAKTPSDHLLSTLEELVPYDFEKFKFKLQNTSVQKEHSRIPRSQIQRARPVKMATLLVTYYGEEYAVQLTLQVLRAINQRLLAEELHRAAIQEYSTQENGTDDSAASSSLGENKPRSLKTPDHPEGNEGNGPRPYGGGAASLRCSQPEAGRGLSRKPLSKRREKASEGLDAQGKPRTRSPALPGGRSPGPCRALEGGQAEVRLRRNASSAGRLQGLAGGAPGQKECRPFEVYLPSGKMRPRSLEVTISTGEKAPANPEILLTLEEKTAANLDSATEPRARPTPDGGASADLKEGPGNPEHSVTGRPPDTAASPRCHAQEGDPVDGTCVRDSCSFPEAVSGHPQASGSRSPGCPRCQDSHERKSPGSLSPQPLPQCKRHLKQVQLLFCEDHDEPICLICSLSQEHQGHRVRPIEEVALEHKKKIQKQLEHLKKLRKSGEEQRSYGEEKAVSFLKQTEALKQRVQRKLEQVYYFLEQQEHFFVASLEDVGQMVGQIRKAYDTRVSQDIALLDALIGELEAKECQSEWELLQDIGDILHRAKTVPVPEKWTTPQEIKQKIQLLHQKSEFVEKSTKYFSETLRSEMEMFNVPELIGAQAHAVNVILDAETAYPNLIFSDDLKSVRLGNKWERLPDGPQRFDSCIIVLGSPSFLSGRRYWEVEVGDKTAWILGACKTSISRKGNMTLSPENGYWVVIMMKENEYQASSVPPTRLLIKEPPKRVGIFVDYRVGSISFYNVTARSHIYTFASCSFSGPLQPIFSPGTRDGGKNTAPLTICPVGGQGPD
# [3] = molecular target: T2, Muscarinic acetylcholine receptor M2 (Homo sapiens) (UniProt P08172); experiment: Binding affinity to M2 muscarinic receptor (unknown origin)
# T2 sequence (whole entry): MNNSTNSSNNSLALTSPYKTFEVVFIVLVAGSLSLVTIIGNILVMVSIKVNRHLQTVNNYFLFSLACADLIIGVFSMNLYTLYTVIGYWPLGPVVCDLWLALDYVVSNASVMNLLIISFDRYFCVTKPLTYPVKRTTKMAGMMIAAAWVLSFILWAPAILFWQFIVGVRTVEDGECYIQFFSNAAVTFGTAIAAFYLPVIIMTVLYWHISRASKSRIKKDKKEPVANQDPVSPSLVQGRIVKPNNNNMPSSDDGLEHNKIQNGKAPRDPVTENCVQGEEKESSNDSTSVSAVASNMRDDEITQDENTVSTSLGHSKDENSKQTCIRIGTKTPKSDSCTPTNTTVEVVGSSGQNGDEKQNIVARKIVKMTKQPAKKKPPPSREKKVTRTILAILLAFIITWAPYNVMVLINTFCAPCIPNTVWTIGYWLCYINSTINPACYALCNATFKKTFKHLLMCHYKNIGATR
# [4] = molecular target: NACHT, LRR and PYD domains-containing protein 3 (Mus musculus) (UniProt Q8R4B8); experiment: In vivo inhibition of NLRP3 in LPS-induced C57BL/6JRi mouse neuroinflammation model assessed as reduction in blood IL-1beta level at 2 mg/kg, po pretreated with LPS for 23 hrs followed by compound addition for 1 hr prior to second dose of LPS addition and measured after 4 hrs; type: functional, organism-based; conditions: time 5.0 hrs
# [5] = molecular target: NACHT, LRR and PYD domains-containing protein 3 (Mus musculus) (UniProt Q8R4B8); experiment: In vivo inhibition of NLRP3 in LPS-induced C57BL/6JRi mouse neuroinflammation model assessed as reduction in IL-1beta level in CSF at 2 mg/kg, po pretreated with LPS for 23 hrs followed by compound addition for 1 hr prior to second dose of LPS addition and measured after 4 hrs; type: functional, organism-based; conditions: time 5.0 hrs
# [6] = molecular target: NACHT, LRR and PYD domains-containing protein 3 (Mus musculus) (UniProt Q8R4B8); experiment: In vivo inhibition of NLRP3 in LPS-induced C57BL/6JRi mouse neuroinflammation model assessed as reduction in blood IL-1beta level at 0.02 mg/kg, po pretreated with LPS for 23 hrs followed by compound addition for 1 hr prior to second dose of LPS addition and measured after 4 hrs; type: functional, organism-based; conditions: time 5.0 hrs
# [7] = molecular target: NACHT, LRR and PYD domains-containing protein 3 (Mus musculus) (UniProt Q8R4B8); experiment: In vivo inhibition of NLRP3 in LPS-induced C57BL/6JRi mouse neuroinflammation model assessed as reduction in IL-1beta level in CSF at 0.02 mg/kg, po pretreated with LPS for 23 hrs followed by compound addition for 1 hr prior to second dose of LPS addition and measured after 4 hrs; type: functional, organism-based; conditions: time 5.0 hrs
# [8] = molecular target: NACHT, LRR and PYD domains-containing protein 3 (Mus musculus) (UniProt Q8R4B8); experiment: In vivo inhibition of NLRP3 in LPS/ATP-induced C57BL/6JRi mouse peritonitis model assessed as reduction in IL-1beta level at 2 mg/kg, po preadministered with compound for 3 hrs followed by LPS stimulation for 2 hrs and measured 15 mins after ATP addition; type: functional, organism-based; conditions: time 315.0 min
# [9] = molecular target: NLR family CARD domain-containing protein 4 (Homo sapiens) (UniProt Q9NPP4); experiment: Inhibition of NLRC4 activation overexpressed in human THP-1 cells assessed as reduction in IL-1beta secretion preincubated for 1 hr followed by PrgI protein addition and measured after 20 hrs; type: cell-based
# NLR family CARD domain-containing protein 4 (Homo sapiens), sequence (Q9NPP4 whole entry, the tested form may be a part): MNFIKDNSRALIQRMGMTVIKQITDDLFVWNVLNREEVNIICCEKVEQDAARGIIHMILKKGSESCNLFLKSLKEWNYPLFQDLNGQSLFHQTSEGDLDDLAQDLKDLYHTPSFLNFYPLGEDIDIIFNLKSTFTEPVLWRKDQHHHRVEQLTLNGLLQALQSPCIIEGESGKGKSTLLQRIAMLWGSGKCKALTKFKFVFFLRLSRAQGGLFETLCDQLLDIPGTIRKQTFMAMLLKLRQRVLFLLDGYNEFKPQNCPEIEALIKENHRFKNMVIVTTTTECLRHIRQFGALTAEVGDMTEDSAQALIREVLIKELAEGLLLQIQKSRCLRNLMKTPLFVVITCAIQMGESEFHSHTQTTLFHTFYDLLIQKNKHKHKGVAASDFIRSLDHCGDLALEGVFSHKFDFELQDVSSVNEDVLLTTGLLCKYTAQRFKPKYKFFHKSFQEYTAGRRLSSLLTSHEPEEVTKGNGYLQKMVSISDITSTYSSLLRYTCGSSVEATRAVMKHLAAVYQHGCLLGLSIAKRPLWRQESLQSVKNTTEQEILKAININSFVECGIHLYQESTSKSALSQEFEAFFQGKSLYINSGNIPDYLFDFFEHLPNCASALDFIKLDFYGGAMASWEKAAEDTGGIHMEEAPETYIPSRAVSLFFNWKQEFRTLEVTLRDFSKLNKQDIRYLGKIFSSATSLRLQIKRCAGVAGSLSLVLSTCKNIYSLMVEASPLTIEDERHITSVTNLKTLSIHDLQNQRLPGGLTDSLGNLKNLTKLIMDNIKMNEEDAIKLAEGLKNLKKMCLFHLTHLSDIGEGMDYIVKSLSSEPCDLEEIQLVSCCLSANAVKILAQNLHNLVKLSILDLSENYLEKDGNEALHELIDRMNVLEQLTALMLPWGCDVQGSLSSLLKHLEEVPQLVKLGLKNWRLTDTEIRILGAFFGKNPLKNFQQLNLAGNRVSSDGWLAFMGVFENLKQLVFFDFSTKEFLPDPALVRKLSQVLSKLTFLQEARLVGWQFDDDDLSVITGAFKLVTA
# [10] = molecular target: NACHT, LRR and PYD domains-containing protein 3 (Mus musculus) (UniProt Q8R4B8); experiment: In vivo inhibition of NLRP3 in LPS/ATP-induced C57BL/6JRi mouse peritonitis model assessed as reduction in IL-1beta level at 0.0083 mg/kg, po preadministered with compound for 3 hrs followed by LPS stimulation for 2 hrs and measured 15 mins after ATP addition; type: functional, organism-based; conditions: time 315.0 min
# [11] = molecular target: NACHT, LRR and PYD domains-containing protein 3 (Mus musculus) (UniProt Q8R4B8); experiment: In vivo inhibition of NLRP3 in LPS-induced C57BL/6JRi mouse neuroinflammation model assessed as reduction in blood IL-1beta level at 0.2 mg/kg, po pretreated with LPS for 23 hrs followed by compound addition for 1 hr prior to second dose of LPS addition and measured after 4 hrs; type: functional, organism-based; conditions: time 5.0 hrs
# [12] = molecular target: Sodium-dependent serotonin transporter (Homo sapiens) (UniProt P31645); experiment: Binding affinity to 5HTT (unknown origin)
# Sodium-dependent serotonin transporter (Homo sapiens), sequence (P31645 whole entry, looked up, the tested form may be a part): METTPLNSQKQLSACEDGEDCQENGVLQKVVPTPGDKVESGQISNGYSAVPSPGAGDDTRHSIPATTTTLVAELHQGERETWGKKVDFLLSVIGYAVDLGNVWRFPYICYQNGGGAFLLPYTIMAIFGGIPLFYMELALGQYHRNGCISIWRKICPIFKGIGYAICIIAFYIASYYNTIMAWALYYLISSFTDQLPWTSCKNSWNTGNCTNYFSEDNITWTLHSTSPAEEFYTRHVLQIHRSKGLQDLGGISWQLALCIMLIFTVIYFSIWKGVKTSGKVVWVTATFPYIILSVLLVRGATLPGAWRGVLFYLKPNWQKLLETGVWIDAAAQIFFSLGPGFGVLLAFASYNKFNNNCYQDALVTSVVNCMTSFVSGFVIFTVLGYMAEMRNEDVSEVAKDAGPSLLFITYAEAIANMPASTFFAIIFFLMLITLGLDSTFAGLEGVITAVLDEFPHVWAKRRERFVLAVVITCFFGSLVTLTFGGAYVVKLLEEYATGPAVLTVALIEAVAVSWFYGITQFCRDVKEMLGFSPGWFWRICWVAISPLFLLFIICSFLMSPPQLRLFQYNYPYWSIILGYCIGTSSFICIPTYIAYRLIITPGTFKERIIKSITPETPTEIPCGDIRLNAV
# [13] = molecular target: NACHT, LRR and PYD domains-containing protein 3 (Mus musculus, UniProt Q8R4B8); experiment: Inhibition of NLRP3 inflammasome in C57BL/6J mouse whole blood assessed as reduction in LPS/ATP induced IL-1beta secretion preincubated for 60 mins followed by LPS addition for 4 hrs prior to ATP addition for 30 mins by HTRF method; type: tissue-based
# NACHT, LRR and PYD domains-containing protein 3, sequence (Q8R4B8 whole entry, the tested form may be a part): as the sequence (Q8R4B8 whole entry, the tested form may be a part) above
# [14] = molecular target: NACHT, LRR and PYD domains-containing protein 3 (Mus musculus) (UniProt Q8R4B8); experiment: In vivo inhibition of NLRP3 in LPS-induced C57BL/6JRi mouse neuroinflammation model assessed as reduction in IL-1beta level in CSF at 0.2 mg/kg, po pretreated with LPS for 23 hrs followed by compound addition for 1 hr prior to second dose of LPS addition and measured after 4 hrs; type: functional, organism-based; conditions: time 5.0 hrs
# [15] = molecular target: NACHT, LRR and PYD domains-containing protein 3 (Mus musculus) (UniProt Q8R4B8); experiment: In vivo inhibition of NLRP3 in LPS/ATP-induced C57BL/6JRi mouse peritonitis model assessed as reduction in IL-1beta level at 0.3 mg/kg, po preadministered with compound for 3 hrs followed by LPS stimulation for 2 hrs and measured 15 mins after ATP addition; type: functional, organism-based; conditions: time 315.0 min
smiles,measurement,setting,value
Cc1cc(C(F)(F)F)cc(O)c1-c1ccc(N[C@@H]2CCCN(C)C2)nn1,inhibition,[1],99.5%
CCN1CCC[C@@H](Nc2ccc(-c3c(C)cc(C(F)(F)F)cc3O)nn2)C1,inhibition,[2],43.9%
same,IC50,Pyrin,> 33000 nM
same,Activity,[3],Active
same,inhibition,[4],94.3%
same,inhibition,[5],96.5%
same,inhibition,[6],42.5%
same,inhibition,[7],-2%
same,inhibition,[8],99.6%
same,inhibition,[9],inactive
same,inhibition,[10],16%
same,inhibition,[11],87.7%
same,Activity,[12],Active
same,IC50,[13],2.5 nM
same,inhibition,[14],51.6%
same,inhibition,[15],98.3%
same,inhibition,[1],99.4%
Cc1cc(C)c(-c2ccc(N[C@@H]3CCCN(C)C3)nn2)c(O)c1,IC50,[13],5.8 nM
same,inhibition,[1],99%
Cc1cc(C(F)(F)F)cc(O)c1-c1ccc(N[C@@H]2CCCN(CCO)C2)nn1,IC50,[13],2.1 nM
same,inhibition,[1],99.6%
